According to patent US20090233796A1, “HERBICIDAL COMPOSITION” (SYNGENTA CROP PROTECTION, INC., priority 2004, published 2009):

Key:
Test in all cases: Compound (A) with nicosulfuron, weed plots
Type in all cases: in vivo
C[…]. = conditions: 5 DAA, No. 3.8
Protocol: (§1) In these tests, various weeds were treated with nicosulfuron alone at a rate equivalent to 35 g per hectare, […] and Compound (A) at rates equivalent to the sum of these. The compositions were formulated as an emulsifyable concentrate (EC).
(§2) The results in the table under each application are the percentage of the plants that were killed.

[…] = 58 DAA, No. 3.12
Protocol: as §1, §2

IPOMOEA SP. = conditions: 5 DAA, No. 3.10
Protocol: as §1, §2

SETARIA VIRIDIS = conditions: 4 DAA, No. 3.11
Protocol: as §1, §2

ABUTILON THEOPHRASTI = conditions: 27 DAA, No. 3.13
Protocol: as §1, §2

BRACHIARIA PLATYPHYLLA = tested on: BRACHIARIA PLATYPHYLLA
Protocol: as §1, §2

## CCOC(=O)COc1ncccc1Oc1cc(-n2c(=O)cc(C(F)(F)F)n(C)c2=O)c(F)cc1Cl [Compound (A)]
C[…].; 5 g/ha
  percentage of the plants that were killed: 20%
C[…].; 10 g/ha
  percentage of the plants that were killed: 30%
C[…].; 20 g/ha
  percentage of the plants that were killed: 95%
[…]; 5 g/ha
  percentage of the plants that were killed: 50%
[…]; 10 g/ha
  percentage of the plants that were killed: 70%
[…]; 20 g/ha
  percentage of the plants that were killed: 97%
IPOMOEA SP.; 5 g/ha
  percentage of the plants that were killed: 30%
IPOMOEA SP.; 10 g/ha
  percentage of the plants that were killed: 80%
IPOMOEA SP.; 20 g/ha
  percentage of the plants that were killed: 95%
SETARIA VIRIDIS; 5 g/ha
  percentage of the plants that were killed: 40%
SETARIA VIRIDIS; 10 g/ha
  percentage of the plants that were killed: 70%
SETARIA VIRIDIS; 20 g/ha
  percentage of the plants that were killed: 85%
ABUTILON THEOPHRASTI; 5 g/ha
  percentage of the plants that were killed: 0%
ABUTILON THEOPHRASTI; 10 g/ha
  percentage of the plants that were killed: 98%
ABUTILON THEOPHRASTI; 20 g/ha
  percentage of the plants that were killed: 99%
BRACHIARIA PLATYPHYLLA; 5 g/ha, 24 DAA, No. 3.16
  percentage of the plants that were killed: 0%
BRACHIARIA PLATYPHYLLA; 5 g/ha, 30 DAA, No. 3.17
  percentage of the plants that were killed: 0%
BRACHIARIA PLATYPHYLLA; 10 g/ha, 24 DAA, No. 3.16
  percentage of the plants that were killed: 0%
BRACHIARIA PLATYPHYLLA; 10 g/ha, 30 DAA, No. 3.17
  percentage of the plants that were killed: 0%
BRACHIARIA PLATYPHYLLA; 20 g/ha, 24 DAA, No. 3.16
  percentage of the plants that were killed: 0%
BRACHIARIA PLATYPHYLLA; 20 g/ha, 30 DAA, No. 3.17
  percentage of the plants that were killed: 0%
